Values quoted from earlier work as cited in patent US20080064913A1 (priority 2005, published 2008).

System: rat
Settings: in vivo

**Q.** For `NN` [hydrazine], which “LD50 (rat)” value is on record?
**A.** 60 mg/kg
